{
  "source": "paper PMC4076210",
  "about": "“Discovery of Novel AKT Inhibitors with Enhanced Anti-Tumor Effects in Combination with the MEK Inhibitor” (PLoS ONE, 2014)",
  "assay_in_all_cases": "Kinase panel",
  "format_in_all_cases": "biochemical",
  "key": {"PKCε(h)": {"target": "T1, PKCε(h) (Homo sapiens, UniProt Q02156)", "T1 construct": "purchased Millipore KinaseProfiler", "T1 sequence (Q02156 1-737)": "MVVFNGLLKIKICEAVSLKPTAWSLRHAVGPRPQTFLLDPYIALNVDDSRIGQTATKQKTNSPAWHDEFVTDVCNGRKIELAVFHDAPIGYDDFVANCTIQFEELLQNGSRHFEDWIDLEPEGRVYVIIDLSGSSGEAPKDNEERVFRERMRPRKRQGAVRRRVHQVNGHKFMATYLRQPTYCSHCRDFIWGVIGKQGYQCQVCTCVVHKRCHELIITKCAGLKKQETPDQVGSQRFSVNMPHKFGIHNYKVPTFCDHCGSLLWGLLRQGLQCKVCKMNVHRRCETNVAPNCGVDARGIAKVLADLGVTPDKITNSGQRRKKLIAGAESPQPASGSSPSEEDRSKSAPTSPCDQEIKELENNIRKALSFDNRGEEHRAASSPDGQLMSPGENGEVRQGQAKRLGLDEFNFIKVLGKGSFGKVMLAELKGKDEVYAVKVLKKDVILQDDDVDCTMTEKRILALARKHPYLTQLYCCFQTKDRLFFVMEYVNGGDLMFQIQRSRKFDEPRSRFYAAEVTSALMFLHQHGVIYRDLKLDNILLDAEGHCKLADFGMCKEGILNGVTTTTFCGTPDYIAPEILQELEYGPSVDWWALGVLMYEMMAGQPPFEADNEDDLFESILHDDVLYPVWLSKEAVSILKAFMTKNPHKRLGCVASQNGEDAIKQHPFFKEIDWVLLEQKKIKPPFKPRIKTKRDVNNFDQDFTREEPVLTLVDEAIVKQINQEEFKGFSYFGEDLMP"}, "Abl(h)": {"target": "T2, Abl(h) (Homo sapiens, UniProt P00519)", "T2 construct": "purchased Millipore KinaseProfiler"}, "Flt3(h)": {"target": "T3, Flt3(h) (Homo sapiens, UniProt P36888)", "T3 construct": "purchased Millipore KinaseProfiler", "T3 sequence (P36888 27-993)": "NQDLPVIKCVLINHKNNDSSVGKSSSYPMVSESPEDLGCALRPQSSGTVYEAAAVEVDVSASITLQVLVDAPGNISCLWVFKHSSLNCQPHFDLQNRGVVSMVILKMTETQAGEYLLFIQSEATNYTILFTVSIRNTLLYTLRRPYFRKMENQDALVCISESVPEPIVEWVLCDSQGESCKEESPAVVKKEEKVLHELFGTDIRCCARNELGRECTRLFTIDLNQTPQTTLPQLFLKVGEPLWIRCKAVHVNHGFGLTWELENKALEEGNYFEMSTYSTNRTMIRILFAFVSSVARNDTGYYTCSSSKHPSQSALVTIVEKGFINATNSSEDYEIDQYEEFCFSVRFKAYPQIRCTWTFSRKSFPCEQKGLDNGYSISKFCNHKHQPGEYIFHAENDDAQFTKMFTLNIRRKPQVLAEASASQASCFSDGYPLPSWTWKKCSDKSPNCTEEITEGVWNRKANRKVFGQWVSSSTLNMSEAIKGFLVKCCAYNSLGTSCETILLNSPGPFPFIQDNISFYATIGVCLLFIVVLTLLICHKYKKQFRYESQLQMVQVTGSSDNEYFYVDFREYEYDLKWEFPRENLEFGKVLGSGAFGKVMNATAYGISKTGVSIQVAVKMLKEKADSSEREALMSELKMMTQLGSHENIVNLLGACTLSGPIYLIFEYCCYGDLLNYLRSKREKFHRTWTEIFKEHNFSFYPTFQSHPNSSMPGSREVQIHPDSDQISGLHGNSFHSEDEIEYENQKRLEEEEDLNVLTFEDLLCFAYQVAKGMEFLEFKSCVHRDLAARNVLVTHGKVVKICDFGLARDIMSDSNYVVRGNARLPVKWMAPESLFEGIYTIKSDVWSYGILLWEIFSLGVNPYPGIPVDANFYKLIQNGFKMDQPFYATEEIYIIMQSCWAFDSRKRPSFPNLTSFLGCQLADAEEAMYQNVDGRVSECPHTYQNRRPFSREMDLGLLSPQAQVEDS"}, "PAR-1Bα(h)": {"target": "T4, PAR-1Bα(h) (Homo sapiens, UniProt Q7KZI7)", "T4 construct": "purchased Millipore KinaseProfiler", "T4 sequence (Q7KZI7 1-725 isoform Q7KZI7-4)": "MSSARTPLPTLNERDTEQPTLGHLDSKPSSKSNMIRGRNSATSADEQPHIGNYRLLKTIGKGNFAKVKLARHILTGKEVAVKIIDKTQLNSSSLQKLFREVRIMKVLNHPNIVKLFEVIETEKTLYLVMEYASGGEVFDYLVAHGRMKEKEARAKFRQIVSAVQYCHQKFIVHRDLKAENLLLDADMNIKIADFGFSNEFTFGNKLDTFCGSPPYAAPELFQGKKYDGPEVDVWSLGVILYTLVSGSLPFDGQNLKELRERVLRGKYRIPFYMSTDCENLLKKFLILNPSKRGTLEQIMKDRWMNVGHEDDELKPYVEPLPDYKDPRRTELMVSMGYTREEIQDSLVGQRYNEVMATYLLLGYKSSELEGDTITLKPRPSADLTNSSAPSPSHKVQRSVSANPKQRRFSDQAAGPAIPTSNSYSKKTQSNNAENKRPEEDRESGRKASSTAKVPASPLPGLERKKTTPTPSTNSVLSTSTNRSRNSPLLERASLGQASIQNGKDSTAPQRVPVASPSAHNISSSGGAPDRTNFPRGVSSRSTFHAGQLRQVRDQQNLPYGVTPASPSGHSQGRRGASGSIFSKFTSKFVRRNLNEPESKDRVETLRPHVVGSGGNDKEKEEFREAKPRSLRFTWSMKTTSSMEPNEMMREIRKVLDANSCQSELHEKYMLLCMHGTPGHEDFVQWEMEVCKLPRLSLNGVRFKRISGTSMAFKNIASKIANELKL"}, "DAPK1(h)": {"target": "T5, DAPK1(h) (Homo sapiens, UniProt P53355)", "T5 construct": "purchased Millipore KinaseProfiler", "T5 sequence (P53355 whole entry)": "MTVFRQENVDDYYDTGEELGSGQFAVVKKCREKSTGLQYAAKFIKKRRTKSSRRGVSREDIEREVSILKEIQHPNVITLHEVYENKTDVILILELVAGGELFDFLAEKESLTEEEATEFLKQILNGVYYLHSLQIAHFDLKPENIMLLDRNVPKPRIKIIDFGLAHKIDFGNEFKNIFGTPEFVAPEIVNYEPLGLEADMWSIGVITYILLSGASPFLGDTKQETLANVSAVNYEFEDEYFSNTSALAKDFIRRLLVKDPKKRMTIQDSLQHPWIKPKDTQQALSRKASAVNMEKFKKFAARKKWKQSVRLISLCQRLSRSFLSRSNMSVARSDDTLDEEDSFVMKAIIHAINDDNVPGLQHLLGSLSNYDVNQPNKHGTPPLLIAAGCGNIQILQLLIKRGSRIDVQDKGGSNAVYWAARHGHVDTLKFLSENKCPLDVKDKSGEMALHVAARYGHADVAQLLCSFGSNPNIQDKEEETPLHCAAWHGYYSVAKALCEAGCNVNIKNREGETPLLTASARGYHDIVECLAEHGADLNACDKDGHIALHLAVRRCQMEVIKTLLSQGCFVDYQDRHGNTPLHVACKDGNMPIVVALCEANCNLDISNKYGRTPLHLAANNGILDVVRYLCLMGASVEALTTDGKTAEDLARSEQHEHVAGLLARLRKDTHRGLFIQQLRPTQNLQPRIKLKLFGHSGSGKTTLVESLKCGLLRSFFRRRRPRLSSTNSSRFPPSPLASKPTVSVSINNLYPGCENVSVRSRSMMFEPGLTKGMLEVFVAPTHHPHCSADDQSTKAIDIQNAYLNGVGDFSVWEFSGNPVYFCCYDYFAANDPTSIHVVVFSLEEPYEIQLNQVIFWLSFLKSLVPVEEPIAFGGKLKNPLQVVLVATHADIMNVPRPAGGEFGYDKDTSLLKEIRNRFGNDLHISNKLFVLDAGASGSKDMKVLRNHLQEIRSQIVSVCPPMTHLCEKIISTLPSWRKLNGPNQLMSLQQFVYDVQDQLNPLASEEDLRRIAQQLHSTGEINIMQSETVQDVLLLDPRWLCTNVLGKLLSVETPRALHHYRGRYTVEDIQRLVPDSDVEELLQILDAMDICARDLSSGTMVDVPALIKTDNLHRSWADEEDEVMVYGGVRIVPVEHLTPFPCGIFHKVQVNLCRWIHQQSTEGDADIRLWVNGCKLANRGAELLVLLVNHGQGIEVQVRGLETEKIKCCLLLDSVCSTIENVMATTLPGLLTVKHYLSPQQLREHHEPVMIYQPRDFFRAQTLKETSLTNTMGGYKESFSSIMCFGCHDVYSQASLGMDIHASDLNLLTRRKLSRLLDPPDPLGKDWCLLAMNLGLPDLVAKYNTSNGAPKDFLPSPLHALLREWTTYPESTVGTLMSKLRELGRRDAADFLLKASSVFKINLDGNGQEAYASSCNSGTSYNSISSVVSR"}, "ZIPK(h)": {"target": "T6, ZIPK(h) (Homo sapiens, UniProt O43293)", "T6 construct": "purchased Millipore KinaseProfiler", "T6 sequence (O43293 whole entry)": "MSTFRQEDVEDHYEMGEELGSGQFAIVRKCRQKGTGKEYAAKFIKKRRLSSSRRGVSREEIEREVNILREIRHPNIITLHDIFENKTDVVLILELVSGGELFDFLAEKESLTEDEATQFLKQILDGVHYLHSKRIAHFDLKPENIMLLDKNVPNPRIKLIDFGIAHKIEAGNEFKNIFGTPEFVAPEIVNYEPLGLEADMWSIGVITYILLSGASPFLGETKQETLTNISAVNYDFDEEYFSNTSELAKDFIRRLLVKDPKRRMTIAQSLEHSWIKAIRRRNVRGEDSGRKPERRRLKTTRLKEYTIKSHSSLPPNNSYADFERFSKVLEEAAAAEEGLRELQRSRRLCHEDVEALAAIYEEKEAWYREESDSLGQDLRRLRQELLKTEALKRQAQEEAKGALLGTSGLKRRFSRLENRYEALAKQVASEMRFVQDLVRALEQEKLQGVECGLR"}, "GRK7(h)": {"target": "T7, GRK7(h) (Homo sapiens, UniProt Q8WTQ7)", "T7 construct": "purchased Millipore KinaseProfiler", "T7 sequence (Q8WTQ7 1-553)": "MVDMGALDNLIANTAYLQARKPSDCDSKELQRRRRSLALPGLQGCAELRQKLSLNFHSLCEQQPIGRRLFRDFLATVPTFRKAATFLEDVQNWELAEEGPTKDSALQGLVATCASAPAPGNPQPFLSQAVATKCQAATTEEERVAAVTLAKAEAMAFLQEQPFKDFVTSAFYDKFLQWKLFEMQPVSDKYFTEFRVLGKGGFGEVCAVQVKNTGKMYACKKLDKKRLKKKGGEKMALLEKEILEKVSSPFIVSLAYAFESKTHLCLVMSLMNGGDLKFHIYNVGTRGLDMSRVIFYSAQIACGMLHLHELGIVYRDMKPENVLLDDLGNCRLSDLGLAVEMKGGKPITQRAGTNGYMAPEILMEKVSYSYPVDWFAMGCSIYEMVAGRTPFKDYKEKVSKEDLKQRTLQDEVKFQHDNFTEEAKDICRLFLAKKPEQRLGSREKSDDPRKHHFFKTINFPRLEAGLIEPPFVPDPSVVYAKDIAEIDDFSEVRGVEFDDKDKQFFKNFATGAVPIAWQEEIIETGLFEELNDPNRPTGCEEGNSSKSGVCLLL"}, "Met(h)": {"target": "T8, Met(h) (Homo sapiens, UniProt P08581)", "T8 construct": "purchased Millipore KinaseProfiler", "T8 sequence (P08581 25-1390)": "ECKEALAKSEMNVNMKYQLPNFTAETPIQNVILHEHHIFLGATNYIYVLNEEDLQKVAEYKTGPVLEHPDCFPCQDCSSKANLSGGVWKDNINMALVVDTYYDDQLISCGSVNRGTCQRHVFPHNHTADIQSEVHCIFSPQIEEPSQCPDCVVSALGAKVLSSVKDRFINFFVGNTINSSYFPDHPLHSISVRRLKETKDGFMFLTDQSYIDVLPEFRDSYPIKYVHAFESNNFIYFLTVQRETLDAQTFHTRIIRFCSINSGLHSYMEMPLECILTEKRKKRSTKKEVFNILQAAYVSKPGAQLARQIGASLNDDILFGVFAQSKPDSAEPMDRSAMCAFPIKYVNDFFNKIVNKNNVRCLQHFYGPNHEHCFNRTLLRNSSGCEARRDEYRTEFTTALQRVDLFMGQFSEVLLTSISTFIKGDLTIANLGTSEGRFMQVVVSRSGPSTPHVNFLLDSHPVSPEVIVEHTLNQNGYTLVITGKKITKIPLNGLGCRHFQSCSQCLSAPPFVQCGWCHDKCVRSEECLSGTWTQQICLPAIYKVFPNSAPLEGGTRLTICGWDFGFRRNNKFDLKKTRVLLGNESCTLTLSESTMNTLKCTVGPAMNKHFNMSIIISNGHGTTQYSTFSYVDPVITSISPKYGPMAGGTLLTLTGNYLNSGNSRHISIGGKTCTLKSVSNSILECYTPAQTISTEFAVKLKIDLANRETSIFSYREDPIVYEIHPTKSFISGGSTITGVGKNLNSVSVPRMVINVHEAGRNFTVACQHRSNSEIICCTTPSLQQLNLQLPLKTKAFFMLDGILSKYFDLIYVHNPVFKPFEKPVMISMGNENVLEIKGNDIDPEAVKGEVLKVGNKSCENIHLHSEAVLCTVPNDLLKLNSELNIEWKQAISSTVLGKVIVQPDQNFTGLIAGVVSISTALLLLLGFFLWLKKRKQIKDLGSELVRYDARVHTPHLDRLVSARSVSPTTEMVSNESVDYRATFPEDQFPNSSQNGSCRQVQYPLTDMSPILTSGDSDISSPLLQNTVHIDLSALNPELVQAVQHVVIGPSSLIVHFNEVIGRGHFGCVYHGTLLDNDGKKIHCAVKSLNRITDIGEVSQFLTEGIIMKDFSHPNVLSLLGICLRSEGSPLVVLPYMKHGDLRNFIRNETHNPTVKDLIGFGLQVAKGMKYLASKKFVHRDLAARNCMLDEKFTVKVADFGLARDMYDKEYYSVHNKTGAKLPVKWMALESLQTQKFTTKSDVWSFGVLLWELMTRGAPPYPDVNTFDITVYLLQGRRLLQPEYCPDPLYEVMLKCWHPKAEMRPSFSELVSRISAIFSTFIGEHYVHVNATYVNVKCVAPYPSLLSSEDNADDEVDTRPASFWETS"}, "CaMKIIγ(h)": {"target": "T9, CaMKIIγ(h) (Homo sapiens, UniProt Q13555)", "T9 construct": "purchased Millipore KinaseProfiler", "T9 sequence (Q13555 whole entry)": "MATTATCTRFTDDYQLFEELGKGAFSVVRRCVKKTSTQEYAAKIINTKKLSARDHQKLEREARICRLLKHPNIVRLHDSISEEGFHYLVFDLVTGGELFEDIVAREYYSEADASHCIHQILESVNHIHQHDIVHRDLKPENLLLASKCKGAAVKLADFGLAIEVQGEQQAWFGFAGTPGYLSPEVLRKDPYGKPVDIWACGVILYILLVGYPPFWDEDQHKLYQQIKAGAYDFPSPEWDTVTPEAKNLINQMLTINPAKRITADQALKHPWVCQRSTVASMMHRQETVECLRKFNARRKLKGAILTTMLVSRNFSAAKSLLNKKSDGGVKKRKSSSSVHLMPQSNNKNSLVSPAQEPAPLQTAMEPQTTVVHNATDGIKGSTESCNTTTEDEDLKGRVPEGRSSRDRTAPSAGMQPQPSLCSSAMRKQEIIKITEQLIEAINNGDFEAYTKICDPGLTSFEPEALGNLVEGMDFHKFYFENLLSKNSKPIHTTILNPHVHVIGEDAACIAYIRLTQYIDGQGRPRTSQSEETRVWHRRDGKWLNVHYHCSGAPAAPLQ"}, "IGF-1R(h)": {"target": "T10, IGF-1R(h) (Homo sapiens, UniProt P08069)", "T10 construct": "purchased Millipore KinaseProfiler"}, "JNK1α1(h)": {"target": "T11, JNK1α1(h) (Homo sapiens, UniProt P45983)", "T11 construct": "purchased Millipore KinaseProfiler", "T11 sequence (P45983 1-384 isoform P45983-2)": "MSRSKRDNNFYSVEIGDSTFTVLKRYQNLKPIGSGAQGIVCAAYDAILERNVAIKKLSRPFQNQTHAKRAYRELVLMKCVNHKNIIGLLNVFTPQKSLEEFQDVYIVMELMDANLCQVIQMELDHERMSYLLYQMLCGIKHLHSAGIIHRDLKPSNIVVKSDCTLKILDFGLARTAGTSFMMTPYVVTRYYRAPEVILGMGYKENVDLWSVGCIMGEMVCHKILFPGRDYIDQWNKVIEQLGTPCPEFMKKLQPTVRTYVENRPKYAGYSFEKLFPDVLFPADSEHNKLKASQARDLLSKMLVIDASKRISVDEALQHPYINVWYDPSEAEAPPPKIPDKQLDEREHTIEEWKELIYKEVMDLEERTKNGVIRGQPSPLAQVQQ"}},
  "note": "Where two headings read alike, the source gives them in different places.",
  "data": [
    {"smiles": "Cn1ncc(Cl)c1-c1cc(C(=O)N[C@H](CN)Cc2cccc(F)c2)sc1Cl", "note": "[GSK2110183]", "values": [
      {"measurement": "inhibition at 0.5 µM", "setting": "PKCε(h)", "value": 19, "unit": "%"},
      {"measurement": "inhibition at 10 µM", "setting": "PKCε(h)", "value": 80, "unit": "%"},
      {"measurement": "inhibition at 0.5 µM", "setting": "Abl(h)", "value": 8, "unit": "%"},
      {"measurement": "inhibition at 10 µM", "setting": "Abl(h)", "value": 4, "unit": "%"},
      {"measurement": "inhibition at 0.5 µM", "setting": "Flt3(h)", "value": -8, "unit": "%"},
      {"measurement": "inhibition at 10 µM", "setting": "Flt3(h)", "value": 24, "unit": "%"},
      {"measurement": "inhibition at 0.5 µM", "setting": "PAR-1Bα(h)", "value": 15, "unit": "%"},
      {"measurement": "inhibition at 10 µM", "setting": "PAR-1Bα(h)", "value": 84, "unit": "%"},
      {"measurement": "inhibition at 0.5 µM", "setting": "DAPK1(h)", "value": 1, "unit": "%"},
      {"measurement": "inhibition at 10 µM", "setting": "DAPK1(h)", "value": 28, "unit": "%"},
      {"measurement": "inhibition at 0.5 µM", "setting": "ZIPK(h)", "value": 0, "unit": "%"},
      {"measurement": "inhibition at 10 µM", "setting": "ZIPK(h)", "value": 62, "unit": "%"},
      {"measurement": "inhibition at 0.5 µM", "setting": "GRK7(h)", "value": 64, "unit": "%"},
      {"measurement": "inhibition at 10 µM", "setting": "GRK7(h)", "value": 96, "unit": "%"},
      {"measurement": "inhibition at 0.5 µM", "setting": "Met(h)", "value": -7, "unit": "%"},
      {"measurement": "inhibition at 10 µM", "setting": "Met(h)", "value": 11, "unit": "%"},
      {"measurement": "inhibition at 0.5 µM", "setting": "CaMKIIγ(h)", "value": 39, "unit": "%"},
      {"measurement": "inhibition at 10 µM", "setting": "CaMKIIγ(h)", "value": 89, "unit": "%"},
      {"measurement": "inhibition at 0.5 µM", "setting": "IGF-1R(h)", "value": 7, "unit": "%"},
      {"measurement": "inhibition at 10 µM", "setting": "IGF-1R(h)", "value": 25, "unit": "%"},
      {"measurement": "inhibition at 0.5 µM", "setting": "JNK1α1(h)", "value": -2, "unit": "%"},
      {"measurement": "inhibition at 10 µM", "setting": "JNK1α1(h)", "value": 13, "unit": "%"}
    ]},
    {"smiles": "Cn1ncc(Cl)c1-c1cc(C(=O)N[C@H](CN)Cc2ccc(F)c(F)c2)oc1Cl", "note": "[GSK2141795]", "values": [
      {"measurement": "inhibition at 0.5 µM", "setting": "PKCε(h); 0.5 µM, read-out: % Inhibition", "value": 32, "unit": "%"},
      {"measurement": "inhibition at 10 µM", "setting": "PKCε(h); 10 µM, read-out: % Inhibition", "value": 81, "unit": "%"},
      {"measurement": "inhibition at 0.5 µM", "setting": "Abl(h); 0.5 µM, read-out: % Inhibition", "value": 12, "unit": "%"},
      {"measurement": "inhibition at 10 µM", "setting": "Abl(h); 10 µM, read-out: % Inhibition", "value": 13, "unit": "%"},
      {"measurement": "inhibition at 0.5 µM", "setting": "Flt3(h); 0.5 µM, read-out: % Inhibition", "value": -12, "unit": "%"},
      {"measurement": "inhibition at 10 µM", "setting": "Flt3(h); 10 µM, read-out: % Inhibition", "value": 22, "unit": "%"},
      {"measurement": "inhibition at 0.5 µM", "setting": "PAR-1Bα(h); 0.5 µM, read-out: % Inhibition", "value": 24, "unit": "%"},
      {"measurement": "inhibition at 10 µM", "setting": "PAR-1Bα(h); 10 µM, read-out: % Inhibition", "value": 83, "unit": "%"},
      {"measurement": "inhibition at 0.5 µM", "setting": "DAPK1(h); 0.5 µM, read-out: % Inhibition", "value": 1, "unit": "%"},
      {"measurement": "inhibition at 10 µM", "setting": "DAPK1(h); 10 µM, read-out: % Inhibition", "value": 41, "unit": "%"},
      {"measurement": "inhibition at 0.5 µM", "setting": "ZIPK(h); 0.5 µM, read-out: % Inhibition", "value": 19, "unit": "%"},
      {"measurement": "inhibition at 10 µM", "setting": "ZIPK(h); 10 µM, read-out: % Inhibition", "value": 78, "unit": "%"},
      {"measurement": "inhibition at 0.5 µM", "setting": "GRK7(h); 0.5 µM, read-out: % Inhibition", "value": 42, "unit": "%"},
      {"measurement": "inhibition at 10 µM", "setting": "GRK7(h); 10 µM, read-out: % Inhibition", "value": 76, "unit": "%"},
      {"measurement": "inhibition at 0.5 µM", "setting": "Met(h); 0.5 µM, read-out: % Inhibition", "value": -28, "unit": "%"},
      {"measurement": "inhibition at 10 µM", "setting": "Met(h); 10 µM, read-out: % Inhibition", "value": -6, "unit": "%"},
      {"measurement": "inhibition at 0.5 µM", "setting": "CaMKIIγ(h); 0.5 µM, read-out: % Inhibition", "value": 48, "unit": "%"},
      {"measurement": "inhibition at 10 µM", "setting": "CaMKIIγ(h); 10 µM, read-out: % Inhibition", "value": 92, "unit": "%"},
      {"measurement": "inhibition at 0.5 µM", "setting": "IGF-1R(h); 0.5 µM, read-out: % Inhibition", "value": 6, "unit": "%"},
      {"measurement": "inhibition at 10 µM", "setting": "IGF-1R(h); 10 µM, read-out: % Inhibition", "value": 31, "unit": "%"},
      {"measurement": "inhibition at 0.5 µM", "setting": "JNK1α1(h); 0.5 µM, read-out: % Inhibition", "value": -9, "unit": "%"},
      {"measurement": "inhibition at 10 µM", "setting": "JNK1α1(h); 10 µM, read-out: % Inhibition", "value": -5, "unit": "%"}
    ]}
  ]
}
